Data: PubChem BioAssay AID1918934 (Molecular Pharmacology Branch, DTP, NCI, 2023)

System: 292921-168-R-J2-PDC complex spheroid viability
Experiment: Anticancer human tumor 292921-168-R-J2-PDC patient-derived pancreatic carcinoma cell line growth inhibition
Conditions: for IC50: curve of first compound; for viability, T/C: stronger effect = lower value
Method in brief: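 Complex spheroids of tumor cells with HUVEC and human MSCs, exposed to iadademstat combined with other agents. Each agent tested in half-log steps from near clinical Cmax (else 10 microM top), DMSO ≤0.25%.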

[1] = second compound 0.1 µM, first compound 0.0316 µM
[2] = second compound 0.1 µM, first compound 0.1 µM
[3] = second compound 0.1 µM, first compound 0.316 µM
[4] = second compound 0.1 µM, first compound 1 µM
[5] = second compound 0.1 µM, first compound 3.16 µM
[6] = second compound 0.1 µM, first compound 10 µM
[7] = second compound 0.316 µM, first compound 0.0316 µM
[8] = second compound 0.316 µM, first compound 0.1 µM
[9] = second compound 0.316 µM, first compound 0.316 µM
[10] = second compound 0.316 µM, first compound 1 µM
[11] = second compound 0.316 µM, first compound 3.16 µM
[12] = second compound 0.316 µM, first compound 10 µM
[13] = second compound 1 µM, first compound 0.0316 µM
[14] = second compound 1 µM, first compound 0.1 µM
[15] = second compound 1 µM, first compound 0.316 µM
[16] = second compound 1 µM, first compound 1 µM
[17] = second compound 1 µM, first compound 3.16 µM
[18] = second compound 1 µM, first compound 10 µM
[19] = second compound 3.16 µM, first compound 0.0316 µM
[20] = second compound 3.16 µM, first compound 0.1 µM
[21] = second compound 3.16 µM, first compound 0.316 µM
[22] = second compound 3.16 µM, first compound 1 µM
[23] = second compound 3.16 µM, first compound 3.16 µM
[24] = second compound 3.16 µM, first compound 10 µM
[25] = second compound 10 µM, first compound 0.0316 µM
[26] = second compound 10 µM, first compound 0.1 µM
[27] = second compound 10 µM, first compound 0.316 µM
[28] = second compound 10 µM, first compound 1 µM
[29] = second compound 10 µM, first compound 3.16 µM
[30] = second compound 10 µM, first compound 10 µM
[31] = second compound 0.1 µM, first compound 0.00949 µM
[32] = second compound 0.1 µM, first compound 0.03 µM
[33] = second compound 0.1 µM, first compound 0.0949 µM
[34] = second compound 0.1 µM, first compound 0.3 µM
[35] = second compound 0.316 µM, first compound 0.00949 µM
[36] = second compound 0.316 µM, first compound 0.03 µM
[37] = second compound 0.316 µM, first compound 0.0949 µM
[38] = second compound 0.316 µM, first compound 0.3 µM
[39] = second compound 1 µM, first compound 0.00949 µM
[40] = second compound 1 µM, first compound 0.03 µM
[41] = second compound 1 µM, first compound 0.0949 µM
[42] = second compound 1 µM, first compound 0.3 µM
[43] = second compound 3.16 µM, first compound 0.00949 µM
[44] = second compound 3.16 µM, first compound 0.03 µM
[45] = second compound 3.16 µM, first compound 0.0949 µM
[46] = second compound 3.16 µM, first compound 0.3 µM
[47] = second compound 10 µM, first compound 0.00949 µM
[48] = second compound 10 µM, first compound 0.03 µM
[49] = second compound 10 µM, first compound 0.0949 µM
[50] = second compound 10 µM, first compound 0.3 µM
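Also: seven day compound exposure before luminescent viability read.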
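For viability, T/C in this document: 100% = DMSO vehicle control wells.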

CC1(C)CCC(CN2CCN(c3ccc(C(=O)NS(=O)(=O)c4ccc(NCC5CCOCC5)c([N+](=O)[O-])c4)c(Oc4cnc5[nH]ccc5c4)c3)CC2)=C(c2ccc(Cl)cc2)C1 + NC1CCC(NC2CC2c2ccccc2)CC1
IC50 (second compound 0.1 µM): 1640 nM
IC50 (second compound 0.316 µM): 1310 nM
IC50 (second compound 1 µM): 1330 nM
IC50 (second compound 3.16 µM): 1260 nM
IC50 (second compound 10 µM): 1110 nM
viability, T/C [1]: 63.5%
viability, T/C [2]: 71.4%
viability, T/C [3]: 73.3%
viability, T/C [4]: 72.4%
viability, T/C [5]: 23.2%
viability, T/C [6]: 0.18%
viability, T/C [7]: 66.3%
viability, T/C [8]: 60.1%
viability, T/C [9]: 68.2%
viability, T/C [10]: 60.1%
viability, T/C [11]: 15.8%
viability, T/C [12]: 0.25%
viability, T/C [13]: 53%
viability, T/C [14]: 58.8%
viability, T/C [15]: 65.4%
viability, T/C [16]: 67.6%
viability, T/C [17]: 16.2%
viability, T/C [18]: 0.26%
viability, T/C [19]: 58.1%
viability, T/C [20]: 60.9%
viability, T/C [21]: 62.3%
viability, T/C [22]: 59.4%
viability, T/C [23]: 12.2%
viability, T/C [24]: 0.14%
viability, T/C [25]: 64.2%
viability, T/C [26]: 64%
viability, T/C [27]: 66.4%
viability, T/C [28]: 53.4%
viability, T/C [29]: 12.7%
viability, T/C [30]: 0.23%

CC1COCCN1c1cc(C2(S(C)(=N)=O)CC2)nc(-c2ccnc3[nH]ccc23)n1 (stereo not given) + NC1CCC(NC2CC2c2ccccc2)CC1
IC50 (second compound 0.1 µM): 351 nM
IC50 (second compound 0.316 µM): 212 nM
IC50 (second compound 1 µM): 200 nM
IC50 (second compound 3.16 µM): 163 nM
IC50 (second compound 10 µM): 128 nM
viability, T/C [1]: 65.1%
viability, T/C [2]: 64.5%
viability, T/C [3]: 52.3%
viability, T/C [4]: 24.9%
viability, T/C [5]: 12.7%
viability, T/C [6]: 11.4%
viability, T/C [7]: 62.2%
viability, T/C [8]: 56.7%
viability, T/C [9]: 46.5%
viability, T/C [10]: 24.5%
viability, T/C [11]: 14.3%
viability, T/C [12]: 12.1%
viability, T/C [13]: 54.1%
viability, T/C [14]: 56.1%
viability, T/C [15]: 46.6%
viability, T/C [16]: 23.7%
viability, T/C [17]: 12.7%
viability, T/C [18]: 11.8%
viability, T/C [19]: 61%
viability, T/C [20]: 51.6%
viability, T/C [21]: 44.8%
viability, T/C [22]: 22.6%
viability, T/C [23]: 13.3%
viability, T/C [24]: 12.7%
viability, T/C [25]: 56.3%
viability, T/C [26]: 52%
viability, T/C [27]: 41.2%
viability, T/C [28]: 24.2%
viability, T/C [29]: 14%
viability, T/C [30]: 12.1%

CCN(c1cc(-c2ccc(CN3CCOCC3)cc2)cc(C(=O)NCc2c(C)cc(C)[nH]c2=O)c1C)C1CCOCC1 + NC1CCC(NC2CC2c2ccccc2)CC1
IC50 (second compound 0.1 µM): 953 nM
IC50 (second compound 0.316 µM): 694 nM
IC50 (second compound 1 µM): 647 nM
IC50 (second compound 3.16 µM): 649 nM
IC50 (second compound 10 µM): 453 nM
viability, T/C [31]: 67.3%
viability, T/C [32]: 69.7%
viability, T/C [33]: 76.6%
viability, T/C [34]: 63.5%
viability, T/C (second compound 0.1 µM, first compound 0.949 µM): 50.6%
viability, T/C (second compound 0.1 µM, first compound 3 µM): 21.3%
viability, T/C [35]: 77.2%
viability, T/C [36]: 71.7%
viability, T/C [37]: 66.6%
viability, T/C [38]: 66.8%
viability, T/C (second compound 0.316 µM, first compound 0.949 µM): 44%
viability, T/C (second compound 0.316 µM, first compound 3 µM): 18.4%
viability, T/C [39]: 60%
viability, T/C [40]: 61.8%
viability, T/C [41]: 67.6%
viability, T/C [42]: 61%
viability, T/C (second compound 1 µM, first compound 0.949 µM): 44.3%
viability, T/C (second compound 1 µM, first compound 3 µM): 17.7%
viability, T/C [43]: 59.8%
viability, T/C [44]: 68.4%
viability, T/C [45]: 68.1%
viability, T/C [46]: 57.6%
viability, T/C (second compound 3.16 µM, first compound 0.949 µM): 45.6%
viability, T/C (second compound 3.16 µM, first compound 3 µM): 18.5%
viability, T/C [47]: 62.8%
viability, T/C [48]: 64.3%
viability, T/C [49]: 63.4%
viability, T/C [50]: 56.8%
viability, T/C (second compound 10 µM, first compound 0.949 µM): 37.4%
viability, T/C (second compound 10 µM, first compound 3 µM): 15.8%

Nc1ncn(C2CC(O)C(CO)S2)c(=O)n1 (stereo not given) + NC1CCC(NC2CC2c2ccccc2)CC1
IC50 (second compound 0.1 µM): 43.8 nM
IC50 (second compound 0.316 µM): 40 nM
IC50 (second compound 1 µM): 37.2 nM
IC50 (second compound 3.16 µM): 34.6 nM
IC50 (second compound 10 µM): 30.7 nM
viability, T/C (second compound 0.1 µM, first compound 0.000949 µM): 68.9%
viability, T/C (second compound 0.1 µM, first compound 0.003 µM): 62%
viability, T/C [31]: 63.2%
viability, T/C [32]: 57.1%
viability, T/C [33]: 36.8%
viability, T/C [34]: 10.9%
viability, T/C (second compound 0.316 µM, first compound 0.000949 µM): 66.8%
viability, T/C (second compound 0.316 µM, first compound 0.003 µM): 64.3%
viability, T/C [35]: 59.1%
viability, T/C [36]: 57.2%
viability, T/C [37]: 33.2%
viability, T/C [38]: 11.2%
viability, T/C (second compound 1 µM, first compound 0.000949 µM): 52.2%
viability, T/C (second compound 1 µM, first compound 0.003 µM): 62.7%
viability, T/C [39]: 55.2%
viability, T/C [40]: 53.9%
viability, T/C [41]: 33.6%
viability, T/C [42]: 10.3%
viability, T/C (second compound 3.16 µM, first compound 0.000949 µM): 55.1%
viability, T/C (second compound 3.16 µM, first compound 0.003 µM): 61.9%
viability, T/C [43]: 58.6%
viability, T/C [44]: 52.9%
viability, T/C [45]: 28%
viability, T/C [46]: 11%
viability, T/C (second compound 10 µM, first compound 0.000949 µM): 56.3%
viability, T/C (second compound 10 µM, first compound 0.003 µM): 61.2%
viability, T/C [47]: 59.6%
viability, T/C [48]: 49.6%
viability, T/C [49]: 28.2%
viability, T/C [50]: 11.5%

O=C(C=Cn1cnc(-c2cc(C(F)(F)F)cc(C(F)(F)F)c2)n1)NNc1cnccn1 + NC1CCC(NC2CC2c2ccccc2)CC1
IC50 (second compound 0.1 µM): 5.43 nM
IC50 (second compound 0.316 µM): 8.67 nM
IC50 (second compound 1 µM): 10.6 nM
IC50 (second compound 3.16 µM): 6.77 nM
IC50 (second compound 10 µM): 5.92 nM
viability, T/C (second compound 0.1 µM, first compound 0.00316 µM): 52.7%
viability, T/C (second compound 0.1 µM, first compound 0.01 µM): 47.4%
viability, T/C [1]: 25.9%
viability, T/C [2]: 13.2%
viability, T/C [3]: 6.69%
viability, T/C [4]: 6.34%
viability, T/C (second compound 0.316 µM, first compound 0.00316 µM): 54.7%
viability, T/C (second compound 0.316 µM, first compound 0.01 µM): 50.4%
viability, T/C [7]: 27%
viability, T/C [8]: 13.6%
viability, T/C [9]: 8.09%
viability, T/C [10]: 7.2%
viability, T/C (second compound 1 µM, first compound 0.00316 µM): 56.7%
viability, T/C (second compound 1 µM, first compound 0.01 µM): 52.1%
viability, T/C [13]: 29%
viability, T/C [14]: 13.8%
viability, T/C [15]: 9.01%
viability, T/C [16]: 7.09%
viability, T/C (second compound 3.16 µM, first compound 0.00316 µM): 53%
viability, T/C (second compound 3.16 µM, first compound 0.01 µM): 48.5%
viability, T/C [19]: 29.9%
viability, T/C [20]: 12.9%
viability, T/C [21]: 8.57%
viability, T/C [22]: 8.41%
viability, T/C (second compound 10 µM, first compound 0.00316 µM): 53.2%
viability, T/C (second compound 10 µM, first compound 0.01 µM): 47.8%
viability, T/C [25]: 30.2%
viability, T/C [26]: 16.3%
viability, T/C [27]: 9.15%
viability, T/C [28]: 8.4%
